Measured values reported in patent publication US20160150784A1, “SYNERGISTIC PESTICIDAL COMPOSITIONS AND RELATED METHODS” (Dow AgroSciences LLC, priority 2013, published 2016).
Values joined by “and” are separate entries in the source; they are usually repeats but may differ in a detail not shown here. Equal entries are not always repeated.

Tests used:
[1] = test system: diamondback moth, Plutella xylostella; assay: Cabbage leaf disc bioassay (track sprayer, 400 L/Ha) on second instar diamondback moths, percent control, synergy by Colby's equation; type: in vivo; details: single active
From the text: (§1) The method described in Colby S. R., “Calculating Synergistic and Antagonistic Responses of Herbicide Combinations,” Weeds, 1967, 15, 20-22 was used to determine an existence of synergic effect between the ryanodine receptor modulator compound and the pesticide (I), (II), or any agriculturally acceptable salt thereof in the formulated pesticidal composition. In this method, the percent insect control of the formulated pesticidal composition as observed in the study was compared to the “expected” percent control (E) as calculated by equation (1) (hereinafter “Colby's equation”) below: […]
(§2) where • X is the percentage of control with the first pesticide at a given rate (p), • Y is the percentage of control with the second pesticide at a given rate (q), and • E is the expected control by the first and second pesticide at a rate of p+q.
Bioassays were performed for different active compounds. Cabbage plants with about two to three new-growth—true leaf stage were treated with different pesticides using a track sprayer application at 400 L/Ha spray volume. Three second instar diamondback moths, Plutella xylostella, were infested onto each leaf disc.
Bioassays were performed for different active compounds. Cabbage plants with about two to three new-growth—true leaf stage were treated with different pesticides using a track sprayer at a rate of 400 L/Ha. Three second instar diamondback moths, Plutella xylostella, were infested onto each leaf disc.

[2] = test system: brown stink bug, Euschistus heros; assay: Diet bioassay on second-instar nymphs of brown stink bug, percent control, synergy by Colby's equation; type: in vivo; details: single active, dose rate 0.04 weight %
From the text: as §1, §2
The percent control of the pesticidal composition against brown stink bug, Euschistus heros, was determined as the “Observed” action, and compared to those obtained by using about 0.04 weight % of compound II, and using about 0.000156 weight % of cyantraniliprole alone. The “Colby's Expected Action” was calculated using Colby's equation as discussed previously.

CCN(C(=O)CCSCCC(F)(F)F)c1cn(-c2cccnc2)nc1Cl [Compound I, N-(3-chloro-1-(pyridin-3-yl)-1H-pyrazol-4-yl)-N-ethyl-3-((3,3,3-trifluoropropyl)thio)propanamide]
% Control Three Days After Treatment ([1]; dose rate 0.0025 weight %): 4.35% and 0%

CNC(=O)c1cc(Cl)cc(C)c1NC(=O)c1cc(Br)nn1-c1ncccc1Cl [Chlorantraniliprole, 3-bromo-N-[4-chloro-2-methyl-6-[(methylamino)carbonyl]phenyl]-1-(3-chloro-2-pyridinyl)-1H-pyrazole-5-carboxamide]
% Control Three Days After Treatment ([1]; dose rate 0.0000347 weight %): 25% | % Control Three Days After Treatment ([1]; dose rate 0.000104 weight %): 62.5% | % Control Three Days After Treatment ([1]; dose rate 0.0003125 weight %): 66.67%

CCN(C(=O)CC[S+]([O-])CCC(F)(F)F)c1cn(-c2cccnc2)nc1Cl (stereo not drawn) [Compound II, N-(3-chloro-1-(pyridin-3-yl)-1H-pyrazol-4-yl)-N-ethyl-3-((3,3,3-trifluoropropyl)sulfinyl)propanamide]
% Control Six Days After Treatment [2]: 0%

Cc1cc(C(F)(C(F)(F)F)C(F)(F)F)ccc1NC(=O)c1cccc(I)c1C(=O)NC(C)(C)CS(C)(=O)=O [Flubendiamide]
% Control Three Days After Treatment ([1]; dose rate 0.0003125 weight %): 8.70%
